Results on nine compounds are retold here after US11753371B2 (BATTERJEE MEDICAL COLLEGE, priority 2021, dated 2023).

What all share (assay type): biochemical
One experiment concerns the target ALDH1a1 (Homo sapiens (Human), UniProt P00352). Put plainly: ALDH assay (diaphorase/resazurin), ALDH1a1 inhibition. The source says: (§1) ALDH catalyzes the oxidation of acetaldehyde to acetic acid while reducing NAD+ to NADH. The formation of NADH is fluorescently detected using diaphorase/resazurin system. Diaphorase utilizes NADH formed from ALDH reaction to produce the fluorescent molecule resorufin from resazurin. See Davis, M. I.; Shen, M.; Simeonov, A.; Hall, M. D., Diaphorase Coupling Protocols for Red-Shifting Dehydrogenase Assays.
(§2) The reagent ALDH1a1 is from R&D Systems (Minneapolis, MN). ALDH2 is from Prospect Bio (East Brunswick, NJ). Acetaldehyde is from Cayman Chemicals (Ann Arbor, MI). NAD^+, and Resazurin sodium salt are from Sigma (St. Louis, MO). Diaphorase is from Reaction Biology (Malvern PA). Zaba micro spin columns are from ThermoFisher scientific (Waltham, MA). […] Desalted samples from each enzyme were pooled together and placed in ice until use. Reaction buffer (50 mM sodium pyrophosphate buffer at pH 8.8, 0.01% Brij35) degassed using vacuum for 10 mins until no visible air bubbles were seen.
(§3) 5 μl of reaction buffer was delivered to ‘no enzyme’ background control wells. Test compounds were prepared in 100% DMSO by serial dilution in 100× of assay concentration. After adding the test compounds, reaction plate was centrifuged briefly in 1200 rpm, then incubated for 20 min at room temperature, to pre-incubate enzyme and compounds. […] Reaction plate was briefly centrifuged and sealed with a plastic film to limit evaporation. After incubation at room temperature for 60 min, 10 μl of detection reagent (15 μg/ml diaphorase, 30 μM resazurin prepared in the degassed reaction buffer) was added. Reaction plate was briefly centrifuged and incubated for 10 minutes at room temperature in the dark.
A general note: Resazurin is reduced to fluorescent resorufin, in cell work by metabolically active cells.

Another experiment has as its target human MAGL (hMAGL) (Homo sapiens (Human), UniProt Q99685). The experiment in a line: MAGL enzyme inhibition assay (4-nitrophenylacetate). The settings on record: relative to disulfiram / unsubstituted analogue. The procedure: The plate was mixed for 30 s and incubated at room temperature for 30 min.
Another experiment has as its target human FAAH (hFAAH) (Homo sapiens (Human), UniProt O00519). The experiment in a line: FAAH enzyme inhibition assay (Cayman screening kit, AMC-arachidonoyl amide). Set-up: key to IC50 (μM) ± SE (hFAAH): NI: no inhibition seen at the tested conditions. The procedure: FAAH inhibition assay was performed using Fatty Acid Amide Hydrolase Inhibitor Screening Assay Kit (Item #10005196), Cayman (1180 E Ellsworth Rd Ann Arbor, MI, USA). […] Manufacturer's protocol was followed to perform the assay. The assay buffer (125 mM Tri-HCl with 1 mM EDTA, pH 9.0) was used to dilute the FAAH human recombinant enzyme. AMC-Arachidonoyl amide, at a concentration of 400 μM was then used as the FAAH substrate. Samples were mixed for 30 s and incubated at 37° C. for 30 min. The fluorescent by-product AMC (7-amino-4-methylcoumarin) released by the FAAH enzyme was detected and quantified at an excitation wavelength of 355 nm and emission wavelength of 460 nm.

The target in another experiment is ALDH2 (Homo sapiens (Human), UniProt P05091). The experiment in a line: ALDH assay (diaphorase/resazurin), ALDH2 inhibition.
Text: as §1, §2, §3

Setting [1] is: Table II, average of at least two different experiments.

Sequence of human FAAH (hFAAH) (O00519 whole entry): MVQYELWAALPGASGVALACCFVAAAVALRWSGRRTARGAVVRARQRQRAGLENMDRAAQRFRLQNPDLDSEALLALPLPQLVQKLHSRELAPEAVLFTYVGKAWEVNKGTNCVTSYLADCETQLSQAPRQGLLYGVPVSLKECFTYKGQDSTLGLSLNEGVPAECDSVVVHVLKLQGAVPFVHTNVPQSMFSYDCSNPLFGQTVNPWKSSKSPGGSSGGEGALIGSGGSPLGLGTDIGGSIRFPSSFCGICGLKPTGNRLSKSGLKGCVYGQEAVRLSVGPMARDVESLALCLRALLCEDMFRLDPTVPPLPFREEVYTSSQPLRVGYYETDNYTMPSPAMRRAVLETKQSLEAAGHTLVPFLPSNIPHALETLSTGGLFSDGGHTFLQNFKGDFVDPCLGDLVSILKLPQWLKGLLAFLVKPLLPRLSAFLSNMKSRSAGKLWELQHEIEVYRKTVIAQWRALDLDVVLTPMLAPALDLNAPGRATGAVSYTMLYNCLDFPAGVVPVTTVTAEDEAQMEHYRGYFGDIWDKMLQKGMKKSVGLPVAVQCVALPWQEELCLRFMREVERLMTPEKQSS
Sequence of ALDH2 (P05091 18-517): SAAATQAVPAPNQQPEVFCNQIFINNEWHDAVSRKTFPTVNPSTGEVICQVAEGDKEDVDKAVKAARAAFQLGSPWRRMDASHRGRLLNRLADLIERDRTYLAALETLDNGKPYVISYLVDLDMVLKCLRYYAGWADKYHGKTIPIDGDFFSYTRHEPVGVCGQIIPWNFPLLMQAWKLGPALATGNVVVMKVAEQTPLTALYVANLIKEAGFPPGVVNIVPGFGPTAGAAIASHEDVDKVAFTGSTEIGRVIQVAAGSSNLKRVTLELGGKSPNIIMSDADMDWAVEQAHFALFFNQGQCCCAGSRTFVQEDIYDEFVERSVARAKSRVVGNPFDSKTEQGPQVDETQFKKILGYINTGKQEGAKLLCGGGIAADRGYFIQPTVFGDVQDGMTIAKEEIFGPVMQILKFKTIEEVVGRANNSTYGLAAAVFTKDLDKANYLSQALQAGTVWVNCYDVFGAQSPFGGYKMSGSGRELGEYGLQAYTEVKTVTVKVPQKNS
Sequence of ALDH1a1 (P00352 whole entry): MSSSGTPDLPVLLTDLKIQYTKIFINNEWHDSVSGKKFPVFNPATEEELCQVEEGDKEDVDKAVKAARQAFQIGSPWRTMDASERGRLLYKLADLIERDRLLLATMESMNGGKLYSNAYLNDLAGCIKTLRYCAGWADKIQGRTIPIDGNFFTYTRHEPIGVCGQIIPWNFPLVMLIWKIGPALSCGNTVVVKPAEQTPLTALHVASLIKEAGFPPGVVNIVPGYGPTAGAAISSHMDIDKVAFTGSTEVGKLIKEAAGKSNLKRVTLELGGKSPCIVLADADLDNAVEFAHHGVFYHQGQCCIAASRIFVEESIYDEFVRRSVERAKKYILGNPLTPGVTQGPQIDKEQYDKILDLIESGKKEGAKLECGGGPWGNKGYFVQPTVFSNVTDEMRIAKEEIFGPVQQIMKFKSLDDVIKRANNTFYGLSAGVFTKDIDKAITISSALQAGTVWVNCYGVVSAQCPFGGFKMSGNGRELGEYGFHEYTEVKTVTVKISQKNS
Sequence of human MAGL (hMAGL) (Q99685 whole entry): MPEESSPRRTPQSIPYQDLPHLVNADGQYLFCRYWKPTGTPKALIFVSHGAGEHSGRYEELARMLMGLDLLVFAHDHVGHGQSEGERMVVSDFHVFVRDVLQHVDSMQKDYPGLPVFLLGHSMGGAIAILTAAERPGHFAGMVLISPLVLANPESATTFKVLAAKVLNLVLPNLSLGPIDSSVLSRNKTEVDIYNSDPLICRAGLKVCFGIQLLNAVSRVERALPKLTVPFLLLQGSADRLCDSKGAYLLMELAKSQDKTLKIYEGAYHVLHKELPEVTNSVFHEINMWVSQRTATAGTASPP

For `CCN(Cc1ccc(C(=O)O)cc1)C(=S)SSC(=S)N(CC)Cc1ccc(C(=O)O)cc1` [Compound I-2d], on ALDH1a1 (para carboxylic acid versus I-2a), the “change in ALDH1a1 inhibitory activity relative to I-2a” value is reported as “tenfold decrease”. The “fold decrease in MAGL inhibitory activity” value on human MAGL (hMAGL) worked out at 20 fold. For the same compound, the “FAAH inhibitory activity (in words)” value at human FAAH (hFAAH) is given as “devoid of anti-FAAH activity”. Further, the “IC50 (μM) ± SE (hFAAH)” value on human FAAH (hFAAH) (setting [1]) was “NI”.
Turning to `Cl.NCCS` [3 Cysteamine•HCl, Cysteamine•HCl], the “ALDH1a1 inhibitory activity (in words)” value at ALDH1a1 is recorded as “none of them showed any activity”. Moreover, the “ALDH2 inhibitory activity (in words)” value on ALDH2 is recorded as “none of them showed any activity”.
With “bis(N-4-ethoxycarbonylbenzylethylthiocarbamoyl)disulphide [II-2l]”, the “FAAH inhibitory activity (in words)” value at human FAAH (hFAAH) was “devoid of anti-FAAH activity”. Besides, on human FAAH (hFAAH) (setting [1]), the “IC50 (μM) ± SE (hFAAH)” value is “NI”.
Consider `CCN(Cc1ccc(C)cc1)C(=S)SSC(=S)N(CC)Cc1ccc(C)cc1` [III-2i, bis (N-4-Methylbenzyethylthiocarbamoyl) disulphide], for which the “Aldh1a1 (IC50, μM) ± SE” value at ALDH1a1 (Table III) is “No inhibition”. Also, the “Aldh2 (IC50, μM) ± SE” value at ALDH2 (Table III) is “No inhibition”.
With `CC(=O)N[C@@H](CS)C(=O)O` [5 N•Acetyl-i-Cysteine, N•Acetyl-i-Cysteine], the “ALDH1a1 inhibitory activity (in words)” value on ALDH1a1 is given as “none of them showed any activity”. Besides, on ALDH2, the “ALDH2 inhibitory activity (in words)” value is on record as “none of them showed any activity”.
Consider `CCN(CCC(=O)O)C(=S)SSC(=S)N(CC)CCC(=O)O` [Compound I-2e, bis(N-carboxylethylethylthiocarbamoyl)disulfide], for which the IC50 (as a rule, the concentration needed to halve the response being measured) at human FAAH (hFAAH) (Table II, average of at least two different experiments, read-out: IC50 (μM) ± SE (hFAAH)) was found to be 122 ± 1.57 µM.
Turning to `CCN(C)C(=S)SSC(=S)N(C)CC` [Compound I-2g], the IC50 amounted to 0.02 ± 0.01 µM at ALDH1a1 (Table I, mean of at least two independent experiments, read-out: IC50 (μM) ± SE (ALDH1a1)) and 0.32 ± 0.04 µM at ALDH2 (Table I, mean of at least two independent experiments, read-out: IC50 (μM) ± SE (ALDH2)).
As for `CC(C)N(C(=S)SSC(=S)N(C(C)C)C(C)C)C(C)C` [Compound I-2h], at human FAAH (hFAAH) (setting [1]), the “IC50 (μM) ± SE (hFAAH)” value is “NI”.
Turning to `CC(C)CN(CC(C)C)C(=S)SSC(=S)N(CC(C)C)CC(C)C` [Compound I-2j], on ALDH1a1, the “ALDH1a1 inhibitory activity (in words)” value was “complete loss of activity”. In addition, the “fold decrease in MAGL inhibitory activity” value at human MAGL (hMAGL) was “up to 15 fold”. Besides, on human FAAH (hFAAH), the “FAAH inhibitory activity (in words)” value is on record as “no inhibition of FAAH”. For the same compound, on human FAAH (hFAAH) (setting [1]), the “IC50 (μM) ± SE (hFAAH)” value is given as “NI”.
